From PubChem BioAssay (NCI)
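Assay format: 96-well plates, 48-hour exposure. GI50 marks 50% less growth. TGI denotes the concentration required for complete inhibition of growth.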

Assays:
Assay in all cases: NCI anticancer screen, dose series, 48 h
SR leukemia = tested on: SR leukemia
NCI-H226 lung = tested on: NCI-H226 lung
SK-MEL-28 melanoma = tested on: SK-MEL-28 melanoma
IGROV1 ovarian = tested on: IGROV1 ovarian
SW-620 colon = tested on: SW-620 colon
HT29 colon = tested on: HT29 colon
MCF7 breast = tested on: MCF7 breast
SN12C renal = tested on: SN12C renal
786-0 renal = tested on: 786-0 renal
SK-OV-3 ovarian = tested on: SK-OV-3 ovarian
U251 CNS = tested on: U251 CNS
LOX IMVI melanoma = tested on: LOX IMVI melanoma
HOP-92 NSCLC = tested on: HOP-92 NSCLC
SF-268 CNS = tested on: SF-268 CNS
UACC-62 melanoma = tested on: UACC-62 melanoma
MALME-3M melanoma = tested on: MALME-3M melanoma
NCI-H522 lung = tested on: NCI-H522 lung
OVCAR-3 ovarian = tested on: OVCAR-3 ovarian
SK-MEL-5 melanoma = tested on: SK-MEL-5 melanoma
DU-145 prostate = tested on: DU-145 prostate
MOLT-4 leukemia = tested on: MOLT-4 leukemia
HOP-62 NSCLC = tested on: HOP-62 NSCLC
CAKI-1 renal = tested on: CAKI-1 renal
RPMI-8226 leukemia = tested on: RPMI-8226 leukemia
HS 578T breast = tested on: HS 578T breast
HCC-2998 colon = tested on: HCC-2998 colon
OVCAR-5 ovarian = tested on: OVCAR-5 ovarian
UO-31 renal = tested on: UO-31 renal
KM12 colon = tested on: KM12 colon
NCI-H460 lung = tested on: NCI-H460 lung
A498 renal = tested on: A498 renal
SF-295 CNS = tested on: SF-295 CNS
EKVX NSCLC = tested on: EKVX NSCLC
OVCAR-4 ovarian = tested on: OVCAR-4 ovarian
T-47D breast = tested on: T-47D breast
COLO 205 colon = tested on: COLO 205 colon
HL-60(TB) leukemia = tested on: HL-60(TB) leukemia
M14 melanoma = tested on: M14 melanoma
MDA-MB-435 = tested on: MDA-MB-435
A549 NSCLC = tested on: A549 NSCLC
ACHN renal = tested on: ACHN renal
SNB-75 CNS = tested on: SNB-75 CNS
MDA-MB-231 breast = tested on: MDA-MB-231 breast
SNB-19 CNS = tested on: SNB-19 CNS
HCT-15 colon = tested on: HCT-15 colon
K-562 leukemia = tested on: K-562 leukemia
TK-10 renal = tested on: TK-10 renal
OVCAR-8 ovarian = tested on: OVCAR-8 ovarian
UACC-257 melanoma = tested on: UACC-257 melanoma
SF-539 CNS = tested on: SF-539 CNS
NCI/ADR-RES ovarian = tested on: NCI/ADR-RES ovarian
BT-549 breast = tested on: BT-549 breast
CCRF-CEM leukemia = tested on: CCRF-CEM leukemia
SK-MEL-2 melanoma = tested on: SK-MEL-2 melanoma
NCI-H23 lung = tested on: NCI-H23 lung
PC-3 prostate = tested on: PC-3 prostate
RXF 393 renal = tested on: RXF 393 renal
HCT-116 colon = tested on: HCT-116 colon

**Q.** What does the source list for `COc1ccc(C(=O)c2cc(OC)c3c(c2)OCO3)cc1O`?
**A.** GI50 (SR leukemia): 42.3 nM; TGI (SR leukemia): > 100000 nM; GI50 (NCI-H226 lung): 2490 nM; TGI (NCI-H226 lung): 8810 nM; GI50 (SK-MEL-28 melanoma): 457 nM; TGI (SK-MEL-28 melanoma): > 100000 nM; GI50 (IGROV1 ovarian): 1180 nM; TGI (IGROV1 ovarian): > 100000 nM; GI50 (SW-620 colon): 57.7 nM; TGI (SW-620 colon): > 100000 nM; GI50 (HT29 colon): 3180 nM; TGI (HT29 colon): > 57200 nM; GI50 (MCF7 breast): 332 nM; TGI (MCF7 breast): 64000 nM; GI50 (SN12C renal): 1090 nM; TGI (SN12C renal): > 100000 nM; GI50 (786-0 renal): 933 nM; TGI (786-0 renal): > 100000 nM; GI50 (SK-OV-3 ovarian): 200 nM; TGI (SK-OV-3 ovarian): 1580 nM; GI50 (U251 CNS): 315 nM; TGI (U251 CNS): > 100000 nM; GI50 (LOX IMVI melanoma): 180 nM; TGI (LOX IMVI melanoma): > 100000 nM; GI50 (HOP-92 NSCLC): 824 nM; TGI (HOP-92 NSCLC): 52700 nM; GI50 (SF-268 CNS): 287 nM; TGI (SF-268 CNS): 16100 nM; GI50 (UACC-62 melanoma): 946 nM; TGI (UACC-62 melanoma): > 100000 nM; GI50 (MALME-3M melanoma): 6720 nM; TGI (MALME-3M melanoma): > 100000 nM; GI50 (NCI-H522 lung): 25.9 nM; TGI (NCI-H522 lung): 105 nM; GI50 (OVCAR-3 ovarian): 213 nM; TGI (OVCAR-3 ovarian): 481 nM; GI50 (SK-MEL-5 melanoma): 261 nM; TGI (SK-MEL-5 melanoma): 1710 nM; GI50 (DU-145 prostate): 340 nM; TGI (DU-145 prostate): 3520 nM; GI50 (MOLT-4 leukemia): 617 nM; TGI (MOLT-4 leukemia): > 100000 nM; GI50 (HOP-62 NSCLC): 383 nM; TGI (HOP-62 NSCLC): > 54200 nM; GI50 (CAKI-1 renal): 1410 nM; TGI (CAKI-1 renal): > 100000 nM; GI50 (RPMI-8226 leukemia): 309 nM; TGI (RPMI-8226 leukemia): > 44000 nM; GI50 (HS 578T breast): 190 nM; TGI (HS 578T breast): > 32100 nM; GI50 (HCC-2998 colon): 1720 nM; TGI (HCC-2998 colon): > 31500 nM; GI50 (OVCAR-5 ovarian): 4490 nM; TGI (OVCAR-5 ovarian): > 100000 nM; GI50 (UO-31 renal): 3640 nM; TGI (UO-31 renal): > 100000 nM; GI50 (KM12 colon): 50.5 nM; TGI (KM12 colon): 2640 nM; GI50 (NCI-H460 lung): 299 nM; TGI (NCI-H460 lung): 9450 nM; GI50 (A498 renal): 2340 nM; TGI (A498 renal): 7500 nM; GI50 (SF-295 CNS): 832 nM; TGI (SF-295 CNS): > 100000 nM; GI50 (EKVX NSCLC): 19800 nM; TGI (EKVX NSCLC): > 100000 nM; GI50 (OVCAR-4 ovarian): 1720 nM; TGI (OVCAR-4 ovarian): > 100000 nM; GI50 (T-47D breast): 883 nM; TGI (T-47D breast): > 100000 nM; GI50 (COLO 205 colon): 7510 nM; TGI (COLO 205 colon): 21000 nM; GI50 (HL-60(TB) leukemia): 119 nM; TGI (HL-60(TB) leukemia): 2240 nM; GI50 (M14 melanoma): 47.3 nM; TGI (M14 melanoma): 5220 nM; GI50 (MDA-MB-435): 22.1 nM; TGI (MDA-MB-435): 60.3 nM; GI50 (A549 NSCLC): 614 nM; TGI (A549 NSCLC): > 100000 nM; GI50 (ACHN renal): 1570 nM; TGI (ACHN renal): > 100000 nM; GI50 (SNB-75 CNS): 166 nM; TGI (SNB-75 CNS): 34600 nM; GI50 (MDA-MB-231 breast): 572 nM; TGI (MDA-MB-231 breast): > 100000 nM; GI50 (SNB-19 CNS): 377 nM; TGI (SNB-19 CNS): > 100000 nM; GI50 (HCT-15 colon): 112 nM; TGI (HCT-15 colon): > 100000 nM; GI50 (K-562 leukemia): 45.9 nM; TGI (K-562 leukemia): > 100000 nM; GI50 (TK-10 renal): 5700 nM; TGI (TK-10 renal): 99400 nM; GI50 (OVCAR-8 ovarian): 387 nM; TGI (OVCAR-8 ovarian): > 100000 nM; GI50 (UACC-257 melanoma): 1130 nM; TGI (UACC-257 melanoma): > 79500 nM; GI50 (SF-539 CNS): 199 nM; TGI (SF-539 CNS): 3070 nM; GI50 (NCI/ADR-RES ovarian): 43.6 nM; GI50 (BT-549 breast): 3060 nM; TGI (BT-549 breast): > 100000 nM; GI50 (CCRF-CEM leukemia): 298 nM; TGI (CCRF-CEM leukemia): > 100000 nM; GI50 (SK-MEL-2 melanoma): 346 nM; TGI (SK-MEL-2 melanoma): 34400 nM; GI50 (NCI-H23 lung): 248 nM; TGI (NCI-H23 lung): > 24800 nM; GI50 (PC-3 prostate): 908 nM; TGI (PC-3 prostate): > 100000 nM; GI50 (RXF 393 renal): 215 nM; TGI (RXF 393 renal): 674 nM; GI50 (HCT-116 colon): 345 nM; TGI (HCT-116 colon): 9190 nM
